According to patent US20230363382A1, “COMBINATIONS OF TRIAZINONE HERBICIDES WITH SAFENERS” (priority 2020, published 2023):
Read-outs that look alike come from different tables or passages of the source.

Legend:
Conditions in all cases: Metribuzin 840 g ai/ha alone, soil spray
Soybean crop [1] = system: Soybean crop
Experimental: (§1) Experiments were carried out to evaluate the phytotoxicity, effect on plant height and effect on number of plants standing after treatments with combinations of one or more triazinone herbicides with one or more safeners.
(§2) Application method was spray and applications were made to soil.

Soybean plants = assay: effect on number of standing Soybean plants; assay type: in vivo
Experimental: as §1, §2

Ipomoea hederacea = assay: % weed control in Soybean crop; assay type: in vivo
Experimental: as §1, §2

Soybean crop [2] = assay: effect on plant height of Soybean crop; assay type: in vivo
Experimental: as §1, §2

For `CSc1nnc(C(C)(C)C)c(=O)n1N` [Metribuzin, 4-amino-6-tert-butyl-4,5-dihydro-3-methylthio-1,2,4-triazin-5-one], the “% Phytotoxicity 7 DAA” value (Soybean crop [1]; Table 1 treatment set) was 6.3%, the “% Phytotoxicity 7 DAA” value (Soybean crop [1]; Table 2 treatment set) was 7.5% and the “% Phytotoxicity 21 DAA” value (Soybean crop [1]; Table 1 treatment set) was 65.0%. The “% Phytotoxicity 21 DAA” value (Soybean crop [1]; Table 2 treatment set) was 62.5%, the “% Phytotoxicity 35 DAA” value (Soybean crop [1]; 35 DAA, Table 1 treatment set) was 81.3% and the “Number of plants standing 28 DAA” value (Soybean plants; Table 1 treatment set) was 3.0. The “Number of plants standing 28 DAA” value (Soybean plants; Table 2 treatment set) was 3.8, the “% Weed Control 7 DAA” value (Ipomoea hederacea; Table 1 treatment set) was 60.0% and the “% Weed Control 7 DAA” value (Ipomoea hederacea; Table 2 treatment set) was 72.5%. The “% Weed Control 14 DAA” value (Ipomoea hederacea; Table 1 treatment set) was 92.5%, the “% Weed Control 14 DAA” value (Ipomoea hederacea; Table 2 treatment set) was 96.3% and the “% Weed Control 21 DAA” value (Ipomoea hederacea; Table 1 treatment set) was 98.8%. For the same molecule, the “% Weed Control 21 DAA” value (Ipomoea hederacea; Table 2 treatment set) was 96.8%, the “% Weed Control 28 DAA” value (Ipomoea hederacea; Table 1 treatment set) was 95.0% and the “% Weed Control 28 DAA” value (Ipomoea hederacea; Table 2 treatment set) was 98.8%. The “% Weed Control 35 DAA” value (Ipomoea hederacea; Table 1 treatment set) was 96.3%, the “% Weed Control 35 DAA” value (Ipomoea hederacea; Table 2 treatment set) was 98.8% and the “Plant height 28 DAA” value (Soybean crop [2]; Table 1 treatment set) was 5.80. For the same molecule, the “Plant height 28 DAA” value (Soybean crop [2]; Table 2 treatment set) was 7.05.
